Results on one substance are retold here after US20140024700A1, “BLOOD-BORNE MIRNAS AS SURROGATE MARKERS OF DRUG EFFICACY FOR CARDIAC CONDITIONS” (miRagen Therapeutics, Inc., priority 2010, published 2014).

“Also recorded” adds a separate entry of the source.

In series [1] the test system is Dahl salt-sensitive rats. The series is described as follows: Dahl salt-sensitive rat heart failure model, 8% NaCl high-salt diet (Example 1). The format is in vivo. The conditions noted are these: 8% NaCl HS diet. An excerpt:
To determine the therapeutic potential of miR-208a inhibition in vivo, we designed an antimiR targeting bases 2 to 17 of the 5′ region of mature miR-208a and containing a combination of LNA and DNA linked by phosphorothioate bonds. The sequence of the antimiR-208a, which is referred to as M-10101, was 5′-[…]-3′ (SEQ ID NO: 12). To test the therapeutic relevance of miR-208a inhibition, we used Dahl salt-sensitive rats that were either fed a low-salt (LS) diet (0.25% NaCl) or a high-salt (HS) diet (8.0% NaCl) starting at 8 weeks of age. Initiation of an HS diet in Dahl salt-sensitive rats results in chronic hypertension, which progresses to a model of congestive heart failure associated primarily with diastolic dysfunction (Rodenbaugh et al. (2007) Am J Physiol Heart Circ Physiol. 293, H1705-H1713). After one week on the HS diet, rats were administered saline, 25 mg/kg antimiR-208a, or 25 mg/kg scrambled control oligo subcutaneously every two weeks. […] As an indication of health, we monitored body weight during the duration of the study.
The LNA-antimiR oligonucleotides were synthesized at miRagen Therapeutics, Inc. as unconjugated and fully phosphorothiolated oligonucleotides perfectly complementary to the 5′ region of the mature miR-208a sequence. The LNA control oligonucleotide consisted of a sequence directed against a C. elegans specific miRNA. […]

The subject of series [2] is miR-499, miR-208b, Myh6, Myh7, Myh7b, HP1β. Nature of the series: Cardiac tissue markers by real-time PCR, Northern and Western blot, 4% NaCl diet (Example 1). The format is in vivo, rat. The conditions noted are these: 4% NaCl HS diet. An excerpt:
This regulation of miR-499 and miR-208b was confirmed by Northern blot analysis (FIG. 2B).
To assess the regulation of the myosin host genes, we examined Myh6, Myh7, and Myh7b mRNA levels.
For in vivo real-time PCR analysis, RNA was extracted from cardiac tissue using Trizol (Invitrogen) after which two μg RNA from each tissue sample was used to generate cDNA using Super Script II reverse transcriptase per manufacturer's specifications (Invitrogen). To detect the level of miR-208 RT-PCR was performed using the Taqman MicroRNA assay (Applied Biosystems, ABI) according the manufacturer's recommendations, using 10-100 ng of total RNA. The expression of a subset of genes was analyzed by quantitative real time PCR using Taqman probes purchased from ABI.
Total RNA was isolated from cardiac tissue samples by using Trizol reagent (Gibco/BRL). Northern blots to detect microRNAs were performed as described previously described. A U6 probe served as a loading control (IDT). 10 μg of total RNA from cardiomyocytes or heart tissue was loaded on 20% acrylamide denaturing gels and transferred to Zeta-probe GT genomic blotting membranes (Bio-Rad) by electrophoresis. After transfer, the blots were cross-linked and baked at 80° C. for 1 hr. To maximize the sensitivity of miRNA detection, oligonucleotide probes were labeled with the Starfire Oligos Kit (IDT, Coralville, Iowa) and α-^32P dATP (Amersham or Perkin Elmer). Probes were hybridized to the membranes overnight at 39° C. in Rapid-hyb buffer (Amersham), after which they were washed twice for 10 minutes at 39° C. with 0.5×SSC containing 0.1% SDS. The blots were exposed and quantified by PhosphorImager analysis (GE HealthCare Life Sciences) and a U6 probe served as a loading control (ABI). The intensity of the radioactive signal was used to quantify the fold change in expression using a phosphorimager and ImageQuant (Bio-Rad).
Western blot analysis. For Western blot analysis, Myosin was extracted from cardiac cells or tissue as described (H-amalainen, N. & Pette, D. Patterns of myosin isoforms in mammalian skeletal muscle fibres. Microsc Res Tech 30, 381-389 (1995)). MHC isoforms were detected by loading 0.1 ug protein lysate on a 4-15% gradient gel and separated by SDS PAGE and Western blotting was performed with mouse monoclonal anti-myosin (slow, skeletal M8421) (Sigma, Mo.), which is highly specific for Myh7.

[3] abbreviates: real-time PCR, Northern blot, listed as anti-miR-208a.
[4] abbreviates: real-time PCR, listed as AntimiR-208a.
The mark [5] stands for this setting: real-time PCR, listed as anti-miR-208a.

In the case of “M-10101: antimiR targeting bases 2 to 17 of mature miR-208a, LNA and DNA linked by phosphorothioate bonds; 5′-CTTTTTGCTCGTCTTA-3′ (SEQ ID NO: 12) (all phosphorothioate, sugars by position and methylation of C not given here; LNA/DNA mixmer; listed as Homo sapiens)”, the Food intake entry in series [1] was “comparable ingestion between all HS-fed groups”. In addition, the “Survival (Kaplan-Meier)” value in series [1] (25 mg/kg sc every 2 weeks starting 1 week after HS diet, listed as antimiR-208a, 25 mg/kg) was “significantly alleviated these symptoms; also recorded: significantly improved”. In series [2] (listed as anti-miR-208a), the “HP1β (miR-208a target) protein, Western blot” value is “target depression” and the “Myh7 protein, Western blot of ventricular tissue” value is recorded as “dose-dependent regulation of Myh7 was confirmed”. Besides, in series [2] (listed as antimiR-208a), the “Myh7 protein, Western blot of ventricular tissue” value is recorded as “dose-dependent reduction”. For the same substance, in series [2] (setting [3]), the “miR-208b level in cardiac tissue” value is reported as “dose-dependent decrease in miR-208b levels” and the “miR-499 expression in cardiac tissue” value is “dose-dependent decrease in expression; also recorded: dose-dependent reduction in miR-499”. In addition, the “miR-208b level in cardiac tissue” value in series [2] (real-time PCR, Northern blot, listed as antimiR-208a) was “significantly blunts this response”. Besides, in series [2] (setting [4]), the “Myh6 mRNA in cardiac tissue” value is given as “dose-dependently increases Myh6 expression”, the “Myh7b mRNA in cardiac tissue” value was “reduces Myh7b expression” and the “Myh7 mRNA (HS diet-induced increase) in cardiac tissue” value was “dose-dependently reduced”. In addition, in series [2] (setting [5]), the “Myh6 mRNA in cardiac tissue” value was “normalized the decreased expression”, the “Myh7b mRNA in cardiac tissue” value is reported as “dose-dependent reduction” and the “Myh7 mRNA (HS diet-induced increase) in cardiac tissue” value is “dose-dependently blunted”.
